# Measured values published in patent USRE48461E1, “Modulation of androgen receptor expression” (Ionis Pharmaceuticals, Inc., priority 2012, dated 2021).
# Oligonucleotides are written 5' to 3', each unit as a sugar letter and its base; * is a phosphorothioate linkage, no mark a phosphodiester; rarer units and linkages stand in square brackets, end groups in braces. Plain capitals give the bases only. k = constrained ethyl (cEt); [5mC] = 5-methylcytosine; d = 2'-deoxy (DNA)
# Assays:
# [1] = test system: AR mRNA; test: Antisense inhibition of human AR in HuVEC cells, single concentration (electroporation, qRT-PCR RTS3559); type: cell-based; details: 500 nM ASO, electroporation, ~24 h, Table 2
# How it was run: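 AR mRNA levels were measured with human primer-probe set RTS3559 and adjusted for total RNA (RIBOGREEN). Cells were HuVEC, with each antisense oligonucleotide delivered by electroporation at one concentration.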
# [2] = test system: AR mRNA; test: Dose-dependent antisense inhibition of human AR in HuVEC cells (electroporation, qRT-PCR RTS3559, IC50); type: cell-based; details: HuVEC, ~16 h, Table 4
# How it was run: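 HuVEC cells dosed with antisense oligonucleotides by electroporation and treated approximately 16 hours. AR mRNA quantified by real-time qPCR with primer probe set RTS3559 and normalised to total RNA by RIBOGREEN; IC50 from dose-response.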
# [3] = test system: total AR mRNA; test: Total (full-length) AR mRNA in C4-2B MR cells, free uptake; type: cell-based, human; details: free uptake, 24 hrs
# Protocol: Cells were plated at a density of 40,000 cells per well in 96-well plates and cultured in RPMI1640 medium with 10% fetal bovine serum. […] ISIS 549372, ISIS 549458, ISIS 549434, and ISIS 554221 were each added at 0.04 μM, 0.20 μM, 1.00 μM, and 5.00 μM concentrations of antisense oligonucleotide to culture media for free uptake by the cells. […] After a treatment period of 24 hrs, total AR mRNA levels were measured by quantitative real-time PCR using primer probe set RTS3559.
# [4] = test system: KLK3 mRNA; test: KLK3 mRNA (AR target gene) in C4-2B MR cells; type: cell-based, human
# [5] = test system: KLK2 mRNA; test: KLK2 mRNA (AR target gene) in C4-2B MR cells; type: cell-based, human
# [6] = test system: C4-2B MR cells; test: Proliferation of MDV3100-resistant C4-2B cells (CellTiter 96); type: cell-based, human; details: 6 days
# Protocol: ISIS 549372, ISIS 549434, ISIS 549458, and ISIS 554221 were each added to the culture media at 0.04 μM, 0.20 μM, 1.00 μM, and 5.00 μM concentration of antisense oligonucleotide. ISIS 347526 was included as a negative control. After a treatment period of 6 days, the proliferative capacity of the cancer cells was measured with using CellTiter 96® AQueous One Solution Cell Proliferation kit (Promega), following the manufacturer's instructions. Results are presented in Table 41 as percent inhibition of proliferation, relative to non-treated cells.
substance,measurement,setting,value
549434 (k[5mC]*kT*kA*dA*dA*d[5mC]*dT*dT*d[5mC]*d[5mC]*d[5mC]*dG*dT*kG*kG*k[5mC]) [compound 549434],% inhibition,[1],96%
same,percent inhibition of AR,[2]; 55.6 nM,38%
same,percent inhibition of AR,[2]; 166.7 nM,60%
same,percent inhibition of AR,[2]; 500.0 nM,86%
same,percent inhibition of AR,[2]; 1500.0 nM,96%
same,IC50,[2],85 nM
same,Percent inhibition of full-length AR mRNA in C4-2B MR cells,[3]; 0.04 μM,9%
same,Percent inhibition of full-length AR mRNA in C4-2B MR cells,[3]; 0.20 μM,36%
same,Percent inhibition of full-length AR mRNA in C4-2B MR cells,[3]; 1.00 μM,66%
same,Percent inhibition of full-length AR mRNA in C4-2B MR cells,[3]; 5.00 μM,88%
same,Percent inhibition of KLK3 mRNA in C4-2B MR cells,[4]; 0.04 μM,10%
same,Percent inhibition of KLK3 mRNA in C4-2B MR cells,[4]; 0.20 μM,47%
same,Percent inhibition of KLK3 mRNA in C4-2B MR cells,[4]; 1.00 μM,42%
same,Percent inhibition of KLK3 mRNA in C4-2B MR cells,[4]; 5.00 μM,64%
same,Percent inhibition of KLK2 mRNA in C4-2B MR cells,[5]; 0.04 μM,5%
same,Percent inhibition of KLK2 mRNA in C4-2B MR cells,[5]; 0.20 μM,27%
same,Percent inhibition of KLK2 mRNA in C4-2B MR cells,[5]; 1.00 μM,49%
same,Percent inhibition of KLK2 mRNA in C4-2B MR cells,[5]; 5.00 μM,68%
same,Percent inhibition of C4-2B MR cell proliferation,[6]; 0.04 μM,0%
same,Percent inhibition of C4-2B MR cell proliferation,[6]; 0.20 μM,0%
same,Percent inhibition of C4-2B MR cell proliferation,[6]; 1.00 μM,21%
same,Percent inhibition of C4-2B MR cell proliferation,[6]; 5.00 μM,22%
